Data on twelve compounds can be found in article PMC2853803 (ACS chemical biology, 2009).

The IC50 is the midpoint of a concentration-inhibition curve.

One data set deals with P-gp (Homo sapiens, UniProt P08183). The conditions noted are these: 50 µM botryllamide; for fold change in rhodamine fluorescence (P-gp-mediated transport): valspodar 3 µg/ml, P-gp-expressing HEK293; for effect on P-gp: result in words.
A further data set addresses MRP1 (Homo sapiens, UniProt P33527). It counts as cell-based. Particulars: 50 µM botryllamide; for fold increase in cellular calcein fluorescence (MRP1-mediated transport): MK-571 50 µM, MRP1-expressing HEK293; for effect on MRP1: result in words.
Data set [1] has as its target T1, ABCG2 (Homo sapiens, UniProt Q9UNQ0).
T1 sequence (Q9UNQ0 1-655): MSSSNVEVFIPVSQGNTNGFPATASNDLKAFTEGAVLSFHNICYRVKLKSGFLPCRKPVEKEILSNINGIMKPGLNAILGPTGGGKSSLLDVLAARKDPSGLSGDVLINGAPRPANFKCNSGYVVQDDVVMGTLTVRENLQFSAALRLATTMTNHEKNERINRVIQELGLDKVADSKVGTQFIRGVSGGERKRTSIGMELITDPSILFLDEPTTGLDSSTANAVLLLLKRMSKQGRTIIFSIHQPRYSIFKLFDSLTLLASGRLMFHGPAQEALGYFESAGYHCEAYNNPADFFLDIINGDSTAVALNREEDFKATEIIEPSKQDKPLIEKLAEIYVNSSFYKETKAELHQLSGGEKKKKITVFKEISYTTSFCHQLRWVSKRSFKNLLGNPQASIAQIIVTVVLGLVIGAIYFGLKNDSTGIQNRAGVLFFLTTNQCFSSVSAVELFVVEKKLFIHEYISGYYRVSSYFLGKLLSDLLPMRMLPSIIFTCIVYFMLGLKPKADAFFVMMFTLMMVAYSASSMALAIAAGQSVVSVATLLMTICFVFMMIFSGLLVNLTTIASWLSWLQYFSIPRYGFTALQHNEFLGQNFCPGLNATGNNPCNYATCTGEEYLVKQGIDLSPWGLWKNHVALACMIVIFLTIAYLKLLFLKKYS
Briefly: Screening assay: pheophorbide a. The class given is cell-based.

Data set [2] has as its target T1, ABCG2. The class given is cell-based. The conditions noted are these: 10 µM compound; for activity in the BODIPY-prazosin flow cytometry assay: result in words.
For data set [3], the system named is NCI-H460/MX20 (ABCG2-overexpressing) cells.
For data set [4], the system named is parental NCI-H460 (ABCG2-) and NCI-H460/MX20 (ABCG2+) cells. The data set can be described thus: Cytotoxicity of botryllamides alone, 7 d. Particulars: 100 µM botryllamide, result in words. It counts as cell-based, human.
Data set [5] has as its target T1, ABCG2. Particulars: 20 µM compound, MCF-7 FLV1000 membranes.
A further data set concerns NCI-H460 parental cells. Briefly: Mitoxantrone cytotoxicity in parental cells. The class given is cell-based, human. Particulars: 10 µM mitoxantrone, vs vehicle (data not shown).
A short description of data set [6]: Light-induced isomerization on exposure to sunlight. The conditions noted are these: result in words. It counts as physicochemical.

“Also recorded” adds a separate entry of the source. Where two headings read alike, the source gives them in different places. Marks after values point to notes of the source that are not given here.

P-gp, sequence (P08183 whole entry): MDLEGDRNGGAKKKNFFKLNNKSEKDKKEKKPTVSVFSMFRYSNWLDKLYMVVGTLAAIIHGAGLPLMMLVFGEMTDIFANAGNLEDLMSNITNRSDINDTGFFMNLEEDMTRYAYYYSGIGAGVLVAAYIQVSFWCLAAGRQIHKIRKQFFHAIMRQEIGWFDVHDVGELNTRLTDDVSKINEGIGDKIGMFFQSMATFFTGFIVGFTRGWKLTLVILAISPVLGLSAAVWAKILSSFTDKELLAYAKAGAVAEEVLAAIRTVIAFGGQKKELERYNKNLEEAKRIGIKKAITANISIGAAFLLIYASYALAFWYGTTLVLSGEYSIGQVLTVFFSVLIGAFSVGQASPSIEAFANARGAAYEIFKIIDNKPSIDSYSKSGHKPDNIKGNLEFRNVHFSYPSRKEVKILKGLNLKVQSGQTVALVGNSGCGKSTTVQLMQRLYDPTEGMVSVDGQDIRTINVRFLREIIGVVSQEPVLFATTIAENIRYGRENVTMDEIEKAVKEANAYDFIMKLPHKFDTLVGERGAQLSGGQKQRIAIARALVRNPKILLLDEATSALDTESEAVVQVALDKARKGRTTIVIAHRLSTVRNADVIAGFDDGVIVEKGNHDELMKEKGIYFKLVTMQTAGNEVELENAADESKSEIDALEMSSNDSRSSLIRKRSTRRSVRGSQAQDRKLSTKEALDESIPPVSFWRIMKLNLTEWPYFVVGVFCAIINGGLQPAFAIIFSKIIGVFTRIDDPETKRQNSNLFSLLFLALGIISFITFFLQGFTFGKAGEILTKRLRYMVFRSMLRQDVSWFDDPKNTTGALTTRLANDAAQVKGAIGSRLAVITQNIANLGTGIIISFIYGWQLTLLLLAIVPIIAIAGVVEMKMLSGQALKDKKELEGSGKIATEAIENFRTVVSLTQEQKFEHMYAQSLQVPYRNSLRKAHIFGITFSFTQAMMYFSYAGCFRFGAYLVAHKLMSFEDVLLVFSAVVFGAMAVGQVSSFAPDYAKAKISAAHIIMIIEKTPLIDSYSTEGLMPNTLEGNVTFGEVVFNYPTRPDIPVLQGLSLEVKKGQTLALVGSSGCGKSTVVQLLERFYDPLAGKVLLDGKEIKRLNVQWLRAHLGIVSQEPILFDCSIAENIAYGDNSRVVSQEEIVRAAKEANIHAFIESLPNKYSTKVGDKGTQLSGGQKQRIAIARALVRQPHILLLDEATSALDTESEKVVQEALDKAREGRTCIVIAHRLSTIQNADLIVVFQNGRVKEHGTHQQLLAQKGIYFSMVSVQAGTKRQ
MRP1, sequence (P33527 whole entry): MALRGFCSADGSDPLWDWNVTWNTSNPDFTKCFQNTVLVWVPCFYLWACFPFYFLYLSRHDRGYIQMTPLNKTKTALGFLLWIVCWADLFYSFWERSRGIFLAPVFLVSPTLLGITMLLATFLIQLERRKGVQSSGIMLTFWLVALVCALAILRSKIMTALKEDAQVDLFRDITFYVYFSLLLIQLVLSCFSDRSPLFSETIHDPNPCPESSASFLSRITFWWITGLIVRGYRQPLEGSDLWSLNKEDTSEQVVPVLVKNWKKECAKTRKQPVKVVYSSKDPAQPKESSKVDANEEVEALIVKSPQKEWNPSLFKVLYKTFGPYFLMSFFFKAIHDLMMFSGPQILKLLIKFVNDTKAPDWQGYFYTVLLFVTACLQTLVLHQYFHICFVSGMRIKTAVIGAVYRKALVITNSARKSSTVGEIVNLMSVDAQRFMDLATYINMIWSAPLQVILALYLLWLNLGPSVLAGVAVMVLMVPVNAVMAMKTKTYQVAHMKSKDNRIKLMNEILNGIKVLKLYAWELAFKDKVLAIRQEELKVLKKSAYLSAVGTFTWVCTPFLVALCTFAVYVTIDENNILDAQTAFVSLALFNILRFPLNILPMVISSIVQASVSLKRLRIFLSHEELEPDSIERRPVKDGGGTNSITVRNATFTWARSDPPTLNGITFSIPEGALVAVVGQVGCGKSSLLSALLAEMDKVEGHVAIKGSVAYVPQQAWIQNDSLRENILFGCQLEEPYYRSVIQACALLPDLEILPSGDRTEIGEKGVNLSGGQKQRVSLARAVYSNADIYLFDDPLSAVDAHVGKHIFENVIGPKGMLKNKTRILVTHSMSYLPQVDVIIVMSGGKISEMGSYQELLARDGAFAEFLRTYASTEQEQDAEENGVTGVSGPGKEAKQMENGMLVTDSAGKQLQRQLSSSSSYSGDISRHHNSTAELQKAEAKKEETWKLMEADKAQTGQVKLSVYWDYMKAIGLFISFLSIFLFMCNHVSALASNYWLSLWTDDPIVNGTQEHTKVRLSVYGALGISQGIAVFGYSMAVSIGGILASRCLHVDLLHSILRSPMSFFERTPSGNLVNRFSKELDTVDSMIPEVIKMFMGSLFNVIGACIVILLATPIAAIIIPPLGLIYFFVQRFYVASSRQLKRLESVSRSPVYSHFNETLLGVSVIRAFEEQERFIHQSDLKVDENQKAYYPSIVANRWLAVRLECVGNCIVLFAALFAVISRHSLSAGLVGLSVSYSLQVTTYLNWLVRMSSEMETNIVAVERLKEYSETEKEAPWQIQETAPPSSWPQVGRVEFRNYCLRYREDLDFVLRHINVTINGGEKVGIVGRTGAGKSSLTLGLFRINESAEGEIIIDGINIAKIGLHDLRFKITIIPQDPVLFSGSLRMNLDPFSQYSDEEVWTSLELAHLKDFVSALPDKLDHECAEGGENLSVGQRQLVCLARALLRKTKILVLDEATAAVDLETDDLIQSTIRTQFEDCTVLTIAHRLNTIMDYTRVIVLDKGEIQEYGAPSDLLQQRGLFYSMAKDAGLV

`CO/C(=C\c1ccc(O)cc1)C(=O)N/C=C/c1cc(Br)c(OC)c(Br)c1` [Botryllamide A, botryllamide A]: the “fold change in rhodamine fluorescence (P-gp-mediated transport)” value (shortened to “fold change … (P-gp-mediated transport)”) at P-gp was determined as 17.6 fold. Besides, the “fold increase in cellular calcein fluorescence (MRP1-mediated transport)” value at MRP1 is reported as 4.5 fold.
As to `CO/C(=C\c1ccc(O)cc1)C(=O)N/C=C/c1ccc(OC)c(Br)c1` [Botryllamide C, botryllamide C], the “activity in the screening assay (PhA)” value on ABCG2 [1] (result in words) is “inactive”. Further, the “fold change … (P-gp-mediated transport)” value at P-gp is listed as 46.4 fold. Besides, at ABCG2 [2], the “activity in the BODIPY-prazosin flow cytometry assay” value is “active”. For the same compound, on MRP1, the “fold increase in cellular calcein fluorescence (MRP1-mediated transport)” value is given as 3.7 fold. Moreover, in [3] (10 µM compound + 10 µM mitoxantrone, result in words), the “activity in the mitoxantrone resistance reversal assay” value is “not particularly active”.
At ABCG2 [1], `CO/C(=C\c1ccc(O)cc1)C(=O)N/C=C/c1ccc(OC)c(Br)c1` [Botryllamide D, botryllamide D] yielded an IC50 of 16.4 ± 2.3 µM. For the same compound, the “effect on P-gp” value on P-gp is “inactive”. For the same compound, in data set [4], the cytotoxicity entry is given as “significant cytotoxicity”.
Take `CO/C(=C\c1ccc(O)cc1)C(=O)N/C=C/c1ccc(OC)cc1` [Botryllamide E, botryllamide E]: the “effect on P-gp” value on P-gp is “minimal effects; also recorded: inactive”. For the same compound, the “effect on MRP1” value at MRP1 is reported as “minimal effects”.
As to `CO/C(=C\c1ccc(O)cc1)C(=O)N/C=C/c1ccc(O)cc1` [Botryllamide F, botryllamide F], the cytotoxicity entry in data set [4] is “significant cytotoxicity”.
Turning to `CO/C(=C\c1ccc(O)cc1)C(=O)N/C=C/c1cc(Br)c(O)c(Br)c1` [Botryllamide G, botryllamide G], the “max activity (% FTC)” value at ABCG2 [1] (human) is given as 123.7 ± 1.7 ^d % FTC. In addition, the “effect on P-gp” value at P-gp was “minimal effects; also recorded: inactive”. Also, at MRP1, the “effect on MRP1” value is “minimal effects”.
As for `[C-]#[N+]c1c(O)cccc1/C=C(/O)C(=O)N/C=C/c1ccc(O)cc1` [Botryllamide H, botryllamide H], the “activity in the screening assay (PhA)” value at ABCG2 [1] is “inactive”. On ABCG2 [2], the “activity in the BODIPY-prazosin flow cytometry assay” value is “inactive”.
Take `COc1ccc2c3c([nH]c2c1)[C@H](C=C(C)C)N1C(=O)[C@@H]2CCCN2C(=O)[C@@H]1C3` [FTC, fumitremorgin C, reference compound]: the “[125I]IAAP binding (incorporation into ABCG2)” value at ABCG2 [5] is recorded as 14 % of control. Also, the “fold increase in intracellular BODIPY-prazosin fluorescence” value on ABCG2 [2] (ABCG2-transfected HEK293, vs absence of inhibitor) is reported as 3.4 fold. Also, the “cells surviving in the presence of mitoxantrone” value in data set [3] (10 µM compound + 10 µM mitoxantrone, 3 days, vs vehicle (DMSO) control) stood at 57%.
Turning to `O=C1c2c(O)ccc(O)c2C(=O)c2c(NCCNCCO)ccc(NCCNCCO)c21` [mitoxantrone, reference compound], the “cells surviving with mitoxantrone alone” value with NCI-H460 parental cells is “approximately 50%”. The “cells alive with mitoxantrone alone” value in data set [3] (10 µM mitoxantrone, 3 days, NCI-H460 MX20, vs vehicle (DMSO)) was “approximately 88%”.
For the compound `C/C=C/C[C@@H](C)C(=O)[C@H]1C(=O)N[C@@H](C(C)C)C(=O)N(C)CC(=O)N(C)[C@@H](CC(C)C)C(=O)N[C@@H](C(C)C)C(=O)N(C)[C@@H](CC(C)C)C(=O)N[C@@H](C)C(=O)N[C@H](C)C(=O)N(C)[C@@H](CC(C)C)C(=O)N(C)[C@@H](CC(C)C)C(=O)N(C)[C@@H](C(C)C)C(=O)N1C` [valspodar, reference compound], the “fold change … (P-gp-mediated transport)” value at P-gp is recorded as 29.7 fold.
For botryllamide B, half-maximal inhibition on ABCG2 [1] (IC50) was put at 11.2 ± 0.6 µM. The cytotoxicity result in data set [4] is given as “significant cytotoxicity”.
On to botryllamide I, for which the stability to sunlight result in data set [6] is recorded as “irreversibly converted to botryllamide E (5) by exposure to sunlight”. The same compound displayed an IC50 against ABCG2 [1] of 41.4 ± 6.1 µM.
